According to patent US20080014192A1, “Methods For The Diagnosis And Treatment of Fungal Infections Caused By Microorganisms Producing Glucosylceramide” (priority 2006, published 2008):

Key:
fungal cells = conditions: Ma et al., 2006 and Alvarez et al.; cited from earlier work
[1] = test system: Cn WT (C. neoformans var. grubii serotype A H99); test: Survival of Tgε26 mice infected intranasally with Cn wild-type; type: in vivo, Cryptococcus neoformans; conditions: Cn WT intranasal, weekly intranasal liposome treatment, no significant change vs controls
Experimental: (§1) Animal studies. Four to six-week-old Tgε26 mice (Wang et al., 1994; Wang et al., 1997), available in our Animal Core Facility, Medical University of South Carolina, Charleston, S.C., were used for this study. Mice were anesthetized with an intraperitoneal injection of 60 μl xylaxine/ketamine mixture containing 5 mg xylazine and 95 mg ketamine per kilogram of body weight. Wild-type and mutant strains of Cn were grown in YPD media for 24 hrs at 30° C. The yeast cells were harvested and washed three times by centrifugation at 3000 rpm for 10 minutes and resuspended in sterile PBS (pH=7.4) at a concentration of 2.5×10^7 cells/ml. Mice were infected intranasally with 20 μl containing 5×10^5 wild-type, Δgcs1 or Δgcs1+GCS1 cells. Mice were fed ad libitum and monitored by twice-daily inspections. Mice that appeared moribund, in pain or with clinical signs of meningoencephalitis were sacrificed using CO2 inhalation followed by cervical dislocation. […] Survival data from the mice experiment were analyzed by Kluskal-Wallis test. […]
(§2) Alveolar macrophage depletion was evaluated by intranasally introducing 60 μl of PBS, empty liposome or liposomes containing clodronate into the mouse and performing bronchoalveolar lavage at 48 hours or 6 days. […] The collected fluid was spun down and alveolar macrophages were counted. […]

[2] = test system: Cn WT (C. neoformans var. grubii serotype A H99); test: Tissue fungal burden (CFU) in Tgε26 mice infected with Cn wild-type; type: in vivo, Cryptococcus neoformans
Experimental: (§3) Alveolar macrophage depletion was evaluated by intranasally introducing 60 μl of PBS, empty liposome or liposomes containing clodronate into the mouse and performing bronchoalveolar lavage at 48 hours or 6 days. Bronchoalveolar lavage was done by inserting a stub adapter in the trachea of the mouse and rinsing the alveolar spaces 10 times using 0.5 ml PBS (pH=7.4) for each wash. The collected fluid was spun down and alveolar macrophages were counted. Lavage samples were taken from two mice per time point per group. Experimental groups were divided into five mice each receiving PBS (control group), empty liposome (control group) or liposome encapsulated clodronate administered mice. Two days before infection with yeast, the mice were anesthesized and given 60 μl of PBS, empty liposomes or clodronate-encapsulated liposomes. After 48 hrs, mice were infected with the yeast cells as described above. Mice continued to receive PBS, liposome or clodronate treatment weekly.
(§4) Tissue fungal burden. […] Organs were homogenized in sterile PBS, using the Stomacher 80 (Lab system, Fisher Scientific, Pittsburgh, Pa., USA) for 2 minutes. Serial dilutions were then plated onto YPD plates and colony-forming units were counted and recorded. Statistical analysis was performed using Student's t test, and a p value of less than 0.05 was considered to be significant.
Tissue burden studies. […]

Cn Δgcs1 mutant [3] = test: Survival of Tgε26 mice infected intranasally with Cn Δgcs1; type: in vivo, Cryptococcus neoformans
Experimental: as §1, §2

Cn Δgcs1 mutant [4] = test: Tissue fungal burden (CFU) in Tgε26 mice infected with Cn Δgcs1; type: in vivo, Cryptococcus neoformans
Experimental: as §3, §4
Tissue burden studies. To address the effect of macrophage depletion on the dissemination of Δgcs1 cells, we performed tissue burden studies of lung, brain, spleen, and kidney upon infection of Cn WT or Δgcs1 strain.

alveolar macrophages = test: Alveolar macrophage depletion, count in bronchoalveolar lavage after intranasal liposomes; type: in vivo, mouse; conditions: P<0.05
Experimental: Alveolar macrophage depletion. Liposomes containing clodronate (dichloromethylenediphosphonic acid disodium salt) and empty liposomes used as control, were prepared as described previously (Van Rooijen, 1994). Briefly, 8 mg cholesterol (Avanti Polar Lipids) and 86 mg L-alpha phosphatidylcholine (Avanti Polar Lipids) were dissolved in chloroform, which was then slowly evaporated. The thin, filmy layer was resuspended in 10 ml of PBS or 0.6M clodronate. The mixture was exposed to N2 gas and incubated 2 hours at room temperature with gentle shaking. The mixture was then sonicated and incubated another 2 hours to allow liposome swelling. The solution was centrifuged at 10,000 g for 15 minutes and the liposomes containing clodronate were collected and washed twice with sterile PBS. The liposomes were kept at 4° C. under N2 until use for a maximum of 2 weeks.
as §2
Pharmacological depletion of alveolar macrophage. […] After 48 hours or 7 days from the injection, mice were sacrificed, the bronco alveolar lavage (BAL) fluid was collected and viability of alveolar macrophages assessed microscopically.

Cn Δgcs1 mutant [5] = test: Lung histopathology of Tgε26 mice infected with Cn Δgcs1; type: in vivo, Cryptococcus neoformans; conditions: day 16 and day 36 of infection; vs empty liposome
Experimental: Histological analyses. Organs were harvested and fixed for 48 hours in 37% formaldehyde, paraffin-embedded, sectioned and stained with movat, mucicarmine, or hematoxylin and eosin.
Histopathology. To gain further insights in the host inflammatory response against Cn Δgcs1 cells in mice in which macrophages have been deleted, we performed a histology analysis on lungs of Tgε26 mice infected with Δgcs1 strain and receiving empty liposome or liposome containing clodronate.

Row | SMILES | extrusion of fungal cells from the intracellular to the extracellular compartment (fungal cells) | average survival of Cn-infected mice [1] [days] | tissue burden culture in the brain, Cn WT ([2]; Tgε26 mice, FIG. 15B) | tissue colonization of Cn WT cells in all organs analyzed ([2]; lung, brain, spleen, kidney, vs PBS or empty liposome groups) | additional days of survival of infection by the Δgcs1 strain (Cn Δgcs1 mutant [3]; Tgε26 mice depleted of AMs) [days] | average survival of Δgcs1-infected mice (Cn Δgcs1 mutant [3]; {}) [days] | number of fungal cells in all organs analyzed, Δgcs1 (Cn Δgcs1 mutant [4]; lung, brain, kidney, spleen, vs control treated groups, P<0.05) | reduction of lung Δgcs1 fungal load (Cn Δgcs1 mutant [4]; macrophage-depleted Tgε26 lungs, P<0.001) [fold] | delay in fungal growth in all other organs (Cn Δgcs1 mutant [4]; {}) [days] | decrease in number of alveolar macrophages (AMs) (alveolar macrophages; 48 hours after single intranasal 60 μl dose of liposome suspension, vs PBS- or empty liposome-treated mice) [%] | reduction of AMs (alveolar macrophages; 7 days after single intranasal 60 μl dose of liposome suspension, vs control-treated mice) [%] | lung histopathology, Δgcs1 cells (Cn Δgcs1 mutant [5])
1 | CCN(CC)CCCC(C)Nc1ccnc2cc(Cl)ccc12 (stereo not drawn) [chloroquine] | promote extrusion of fungal cells | – | – | – | – | – | – | – | – | – | – | –
2 | O=P([O-])([O-])C(Cl)(Cl)P(=O)(O)O.[Na+].[Na+] [clodronate, dichloromethylenediphosphonic acid disodium salt] | – | 12.8 ± 5.2 | reduction of tissue burden culture in the brain (FIG. 15B) but this difference was not statistically significant | No statistically significant differences | 18 to 20 | 76.6 ± 5.3 | significantly lower number of fungal cells | > 3000 | 14 | 58 | 52 | few Δgcs1 cells in the lung parenchyma
